Laboratory results published in US6342504B1, “Aromatic heterocyclic derivatives as enzyme inhibitors” (priority 1994, dated 2002).
Where a name gives a salt, the structure may show the parent alone. Marks after values point to notes of the source that are not given here.

Columns and labels:
[1] = biological target: T1, human alpha thrombin (Homo sapiens, UniProt P00734); test: Thrombin (fIIa) IC50 assay, chromogenic substrate Pefachrome t-PA; type: biochemical
T1 construct: Purified human alpha-thrombin; purchased Enzyme Research Laboratories, Inc
Description: (§1) The ability of compounds of the present invention to act as a selective inhibitor of thrombin catalytic activity was assessed by determining the concentration of compound which inhibited the activity of this enzyme by 50%, (IC50), and comparing this value to that determined for all or some of the following related serine proteases: recombinant tissue plasminogen activator (rt-PA), plasmin, activated protein C, chymotrypsin, factor Xa and trypsin.
(§2) The buffer used for all assays was HBSA (10 mM HEPES, pH 7.5, 150 mM sodium chloride, 0.1% bovine serum albumin).
(§3) The assay for IC50 determinations was conducted by combining in appropriate wells of a Corning microtiter plate, 50 microliters of HBSA, 50 microliters of the test compound at a specified concentration (covering a broad concentration range) diluted in HBSA (or HBSA alone for VO (uninhibited velocity) measurement), and 50 microliters of the enzyme diluted in HBSA. Following a 30 minute incubation at ambient temperature, 50 microliters of the substrate at the concentrations specified below were added to the wells, yielding a final total volume of 200 microliters. The initial velocity of chromogenic substrate hydrolysis was measured by the change in absorbance at 405 nm using a Thermo Max® Kinetic Microplate Reader over a 5 minute period in which less than 5% of the added substrate was utilized. The concentration of added inhibitor which caused a 50% decrease in the initial rate of hydrolysis was defined as the IC50 value.
Enzyme activity was determined using the chromogenic substrate, Pefachrome t-PA (CH3SO2-D-hexahydrotyrosine-glycyl-L-Arginine-p-nitroaniline, obtained from Pentapharm Ltd.). The substrate was reconstituted in deionized water prior to use. Purified human a-thrombin was obtained from Enzyme Research Laboratories, Inc. The buffer used for all assays was HBSA (10 mM HEPES, pH 7.5, 150 mM sodium chloride, 0.1% bovine serum albumin).
IC50 determinations were conducted where HBSA ([…]), a-thrombin (50 μl) and inhibitor (50 μl) (covering a broad concentration range), were combined in appropriate wells and incubated for 30 minutes at room temperature prior to the addition of substrate Pefachrome-t-PA (50 μl). The initial velocity of Pefachrome t-PA hydrolysis was measured by the change in absorbance at 405 nm using a Thermo Max® Kinetic Microplate Reader over a 5 minute period in which less than 5% of the added substrate was utilized. The concentration of added inhibitor which caused a 50% decrease in the initial rate of hydrolysis was defined as the IC50 value.

[2] = biological target: human plasmin (Homo sapiens, UniProt P00747); test: biochemical; details: 30 minute incubation; read-out: IC50 Plasmin (Table 2)
Description: as §1, §2, §3
Plasmin catalytic activity was determined using the chromogenic substrate, S-2366 [L-pyroglutomyl-L-prolyl-L-arginine-p-nitroaniline hydrochloride], which was obtained from Pharmacia-Upjohn. The substrate was made up in deionized water followed by dilution in HBSA prior to the assay in which the final concentration was 300 micromolar (about 2.5-times Km). Purified human plasmin was obtained from Enzyme Research Laboratories, Inc. The enzyme was diluted into HBSA prior to assay in which the final concentration was […].

[3] = test system: pooled normal human plasma; test: Ex vivo anticoagulant effect: activated partial thromboplastin time (APTT) in plasma; type: biochemical
Description: FIG. 6 depicts the anticoagulant effect of [3-[(benzylsulfonyl)amino]-2-oxo-1,2-dihydropyridyl] acetyl-L-arginal measured in citrated human plasma, closed circles (l), using the activated partial thromboplastin time (APTT) assay. […] The data is the mean of two independent determinations.
The ex vivo anticoagulant effect of [3-[(benzylsulfonyl)amino]-2-oxo-1,2-dihydropyridyl]acetyl-L-argininal was determined by measuring the prolongation of the activated partial thromboplastin time (APTT) over a broad concentration range of the added inhibitor, using pooled normal human plasma. Fresh frozen citrated pooled normal human plasma was obtained from George King Biomedical, Overland Park, Kans. Measurements of APTT were made using the Coag-A-Mate RA4 automated coagulometer (General Diagnostics, Organon Technica, Oklahoma City, Okla.) using the Platelin® L reagent (Organon Technica, Durham, N.C.) as the initiator of clotting according to the manufacturer's instructions. The assay was conducted by making a series of dilutions of the test compounds in rapidly thawed plasma followed by adding 200 microliters to the wells of the assay carousel.

[4] = test system: FeCl3-induced occlusive thrombus in rat carotid artery; test: Rat model of FeCl3-induced platelet-dependent arterial thrombosis; type: in vivo; details: for Incidence of Occlusion: n 6
Text: Rat Model of FeCl3-induced Platelet-dependent Arterial Thrombosis
Kurz, K. D., Main, B. W., and Sandusky, G. E., Thromb. […] In this model a platelet-rich, occlusive thrombus is formed in a segment of the rat carotid artery treated locally with a fresh solution of FeCl3 absorbed to a piece of filter paper. The FeCl3 is thought to diffuse into the treated segment of artery and cause de-endothelialization of the affected vessel surface. […] The effect of a test compound on the incidence of occlusive thrombus formation following the application of the FeCl3 is monitored by ultrasonic flowtometry and is used as the primary end point. The use of flowtometry to measure carotid artery blood flow, is a modification of the original procedure in which thermal detection of clot formation was employed. Kurz, K. D., Main, B. W., and Sandusky, G. E., Thromb.
Male Harlan Sprague Dawley rats (420-450 g) were acclimated at least 72 hours prior to use and fasted for 12 hours prior to surgery with free access to water. The animals were prepared, anesthetized with Nembutal followed by the insertion of catheters for blood pressure monitoring, drug and anesthesia delivery. The left carotid artery was isolated by making a midline cervical incision followed by blunt dissection and spreading techniques to separate a 2 cm segment of the vessel from the carotid sheath. A silk suture is inserted under the proximal and distal ends of the isolated vessel to provide clearance for the placement of a ultrasonic flow probe (Transonic) around the proximal end of the vessel. The probe is then secured with a stationary arm.
The test compound was administered as a single intravenous bolus at the doses outlined in Table 4 after placement of the flow probe and 5 minutes prior to the thrombogenic stimulus. At t=0, a 3 mm diameter piece of filter paper (Whatman #3) soaked with 10 microliters of a 35% solution of fresh FeCl3 (made up in water) was applied the segment of isolated carotid artery distal to the flow probe. Blood pressure, blood flow, heart rate, and respiration were monitored for 60 minutes.
The incidence of occlusion (defined as the attainment of zero blood flow) was recorded as the primary end point.
This allows a direct comparison of the antithrombotic efficacy of [3-[(benzylsulfonyl)amino]-2-oxo-1,2-dihydropyridyl]acetyl-L-argininal, with other antithrombotic agents which have also been evaluated in this model as described above. Table 5 lists the ED50 values for several well known anticoagulant agents in this model compared to [3-[(benzylsulfonyl)amino]-2-oxo-1,2-dihydropyridyl]acetyl-L-argininal.

human plasmin, sequence (P00747 97-580): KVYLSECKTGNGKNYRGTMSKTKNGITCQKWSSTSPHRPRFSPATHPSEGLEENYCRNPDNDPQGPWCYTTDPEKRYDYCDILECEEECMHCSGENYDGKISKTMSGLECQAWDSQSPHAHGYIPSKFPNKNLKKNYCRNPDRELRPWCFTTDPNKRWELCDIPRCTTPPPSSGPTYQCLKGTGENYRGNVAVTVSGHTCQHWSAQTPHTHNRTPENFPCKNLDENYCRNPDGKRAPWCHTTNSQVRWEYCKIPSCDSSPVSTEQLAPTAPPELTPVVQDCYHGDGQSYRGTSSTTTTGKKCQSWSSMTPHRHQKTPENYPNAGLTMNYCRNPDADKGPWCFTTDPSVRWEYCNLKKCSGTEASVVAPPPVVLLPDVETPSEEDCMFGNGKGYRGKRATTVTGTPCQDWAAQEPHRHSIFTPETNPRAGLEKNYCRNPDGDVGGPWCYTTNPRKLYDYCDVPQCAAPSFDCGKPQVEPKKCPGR
human plasmin, sequence (P00747 581-810): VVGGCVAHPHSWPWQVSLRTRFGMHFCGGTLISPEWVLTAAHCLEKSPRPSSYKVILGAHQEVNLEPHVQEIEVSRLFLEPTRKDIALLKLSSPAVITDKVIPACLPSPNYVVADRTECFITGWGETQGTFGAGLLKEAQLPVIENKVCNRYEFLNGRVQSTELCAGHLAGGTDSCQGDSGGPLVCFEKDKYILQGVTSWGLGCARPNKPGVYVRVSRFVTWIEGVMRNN

## N=C(N)NCCC[C@@H](C=O)NC(=O)Cn1cccc(NS(=O)(=O)Cc2ccccc2)c1=O [Example 10, [3-[(benzylsulfonyl)amino]-2-oxo-1,2-dihydropyridyl]acetyl-L-argininal, trifluoroacetate salt]
[1]
  IC50: 0.66 nM
[2]
  IC50: > 2500 nM
[3]; citrated human plasma, control clotting time 29 seconds, mean of two independent determinations
  concentration which caused a doubling of the control clotting time (APTT): 7.7 µM
[3]; pooled normal human plasma, broad concentration range
  prolongation of the APTT: prolonged the APTT in a dose dependent manner
[4]; 0.3 mg/kg single intravenous bolus 5 minutes prior to FeCl3, monitored 60 minutes
  Incidence of Occlusion: 6/6
[4]; 1.0 mg/kg single intravenous bolus 5 minutes prior to FeCl3
  Incidence of Occlusion: 3/6
[4]; 3.0 mg/kg single intravenous bolus 5 minutes prior to FeCl3, p ≦ 0.05 from saline control
  Incidence of Occlusion: 1/6*
[4]; 5.0 mg/kg single intravenous bolus 5 minutes prior to FeCl3, p ≦ 0.05 from saline control
  Incidence of Occlusion: 0/6*
[4]; Rattus norvegicus, read-out: ED50 for thrombus prevention (dose that prevents complete thrombotic occlusion in 50% of animals)
  ED50: 1 mg/kg
